Results published in patent publication US11117900B2 (Vertex Pharmaceuticals Incorporated, priority 2012, dated 2021).

Each compound was assayed on HCT116 colorectal cancer cells (assay: Cisplatin sensitization assay (96 h MTS cell viability)). Conditions: Cisplatin sensitization value.
Assay type: cell-based
Procedure, shortened: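 The MTS viability read, after 1 h with reagent, followed 96 h of co-treatment at 37° C. in 5% CO2. Both compound and cisplatin were titrated 2-fold from a 10 μM top final concentration in a complete concentration matrix on HCT116 cells. Scores +++/++/+ reflect cisplatin sensitization value ranges.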
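Note: compound concentration needed to lower the IC50 of Cisplatin alone by a set fold.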

Structure (SMILES) | Cisplatin Sensitization Assay
Nc1nn2cc(F)cnc2c1C(=O)Nc1cnccc1N1CCC(C(=O)N2CCCC2)CC1 [I-G-83, 2-amino-6-fluoro-N-(4-(4-(pyrrolidine-1-carbonyl)piperidin-1-yl)pyridin-3-yl)pyrazolo[1,5-a]pyrimidine-3-carboxamide] | +++ (Compounds with a Cisplatin sensitization value of <0.02 μM are marked with “+++.”)
Nc1nn2cc(F)cnc2c1C(=O)Nc1cnccc1N1CCC(S(=O)(=O)C2COC2)CC1 [I-N-200, 2-amino-6-fluoro-N-(4-(4-(oxetan-3-ylsulfonyl)piperidin-1-yl)pyridin-3-yl)pyrazolo[1,5-a]pyrimidine-3-carboxamide] | +++ (Compounds with a Cisplatin sensitization value of <0.02 μM are marked with “+++.”)
Nc1nn2cc(F)cnc2c1C(=O)Nc1cncc(F)c1N1CCC(C(=O)N2CCNC3(CC3)C2)CC1 [I-G-28, N-(4-(4-(4,7-diazaspiro[2.5]octane-7-carbonyl)piperidin-1-yl)-5-fluoropyridin-3-yl)-2-amino-6-fluoropyrazolo[1,5-a]pyrimidine-3-carboxamide] | +++ (Compounds with a Cisplatin sensitization value of <0.02 μM are marked with “+++.”)
CN1CCN(c2ccncc2NC(=O)c2c(N)nn3cc(Cl)cnc23)CC1CO (stereo not shown) [I-N-63, 2-amino-6-chloro-N-(4-(3-(hydroxymethyl)-4-methylpiperazin-1-yl)pyridin-3-yl)pyrazolo[1,5-a]pyrimidine-3-carboxamide] | ++ (Compounds with a Cisplatin sensitization value >0.02 μM but <0.2 μM are marked with “++.”)
CC1(S(C)(=O)=O)CCN(c2ccncc2NC(=O)c2c(N)nn3cc(F)cnc23)CC1 [I-N-243, 2-amino-6-fluoro-N-(4-(4-methyl-4-(methylsulfonyl)piperidin-1-yl)pyridin-3-yl)pyrazolo[1,5-a]pyrimidine-3-carboxamide] | +++ (Compounds with a Cisplatin sensitization value of <0.02 μM are marked with “+++.”)
Nc1nn2cc(F)cnc2c1C(=O)Nc1cnccc1-c1ccc(C(=O)N2CCN(C3COC3)CC2)cc1F [I-C-51, 2-amino-6-fluoro-N-(4-(2-fluoro-4-(4-(oxetan-3-yl)piperazine-1-carbonyl)phenyl)pyridin-3-yl)pyrazolo[1,5-a]pyrimidine-3-carboxamide] | ++ (Compounds with a Cisplatin sensitization value >0.02 μM but <0.2 μM are marked with “++.”)
Nc1nn2cc(F)cnc2c1C(=O)Nc1cncc(F)c1N1CCC(N2CCOCC2)CC1 [I-N-189, 2-amino-6-fluoro-N-(5-fluoro-4-(4-morpholinopiperidin-1-yl)pyridin-3-yl)pyrazolo[1,5-a]pyrimidine-3-carboxamide] | +++ (Compounds with a Cisplatin sensitization value of <0.02 μM are marked with “+++.”)
Nc1nn2cc(Cl)cnc2c1C(=O)Nc1cnccc1N1CCNCC1 [I-N-88, 2-amino-6-chloro-N-(4-(piperazin-1-yl)pyridin-3-yl)pyrazolo[1,5-a]pyrimidine-3-carboxamide] | ++ (Compounds with a Cisplatin sensitization value >0.02 μM but <0.2 μM are marked with “++.”)
Nc1nn2cc(F)cnc2c1C(=O)Nc1cnccc1N1CCC(S(=O)(=O)N2CCN3CCC2CC3)CC1 [I-N-196, N-(4-(4-(1,4-diazabicyclo[3.2.2]nonan-4-ylsulfonyl)piperidin-1-yl)pyridin-3-yl)-2-amino-6-fluoropyrazolo[1,5-a]pyrimidine-3-carboxamide] | +++ (Compounds with a Cisplatin sensitization value of <0.02 μM are marked with “+++.”)
CN1CCN(C(=O)C2CCN(c3c(F)cncc3NC(=O)c3c(N)nn4cc(F)cnc34)CC2)C2CC21 (stereo not shown) [I-G-65, 2-amino-6-fluoro-N-(5-fluoro-4-(4-(5-methyl-2,5-diazabicyclo[4.1.0]heptane-2-carbonyl)piperidin-1-yl)pyridin-3-yl)pyrazolo[1,5-a]pyrimidine-3-carboxamide] | +++ (Compounds with a Cisplatin sensitization value of <0.02 μM are marked with “+++.”)
